Measurements reported in US20020048549A1, “Radioactive transition metal nitride heterocomplex” (priority 1996, published 2002).

Test: Biodistribution of 99mTcN-DESI in SD rats (Group A alone, Group B with unlabeled desipramine)
Assay type: in vivo
Method: The biodistribution of the ^99mTcN-DESI in SD rats obtained in Example 15 was measured.
Before being injected into the rats, the ^99mTcN-DESI was separated and purified from the excess and free bidentate ligand by HPLC. The active ingredient of the complex was further purified by passage through a Sep-Pak cartridge activated with 5 ml of 95% ethanol. The final active ingredient was recovered with 95% ethanol and diluted with physiological saline containing 10% Tween 80.
The rats were divided into two groups, group A and group B. Into each rat in group A was injected 20 μCi of the ^99mTcN-DESI. Into each rat in group B were injected 20 μCi of the ^99mTcN-DESI and 1.0 mg/kg of unlabeled desipramine at the same time.
SD rats weighing about 250 g were put under intraperitoneal anesthesia with a mixture of xylazine (18 mg/kg) and ketamine (15 mg/kg) and given an injection in the jugular vein. Then, the organs (brain, heart, lung, liver, spleen, kidney, muscle, adrenal, and submaxillary gland) were excised from the rats at different intervals of time, washed and then weighed. In addition, blood samples were collected and then weighed. The data on the biodistribution are expressed as the mean±significant difference of the percentage of radioactivity level per gram of the organ weight based on the dose of radioactivity, (% dose/g). The measurement was carried out using groups of 3 rats each.

[1] = Group A (complex alone), 10 min
[2] = Group A (complex alone), 30 min
[3] = Group A (complex alone), 60 min
[4] = Group A (complex alone), 120 min
[5] = Group A (complex alone), 150 min

In the case of COCCC[P+]1(CCCOC)CCN(CCOC)CC[P+](CCCOC)(CCCOC)[99Tc-2]12(#[N])[NH]C(C(=O)N(C)CCCN1c3ccccc3CCc3ccccc31)C[S]2 (centres unmarked) [^99mTcN-DESI], the “Adrenal glands % dose/g” value (Group A (complex alone), 2 min) is reported as 4.227 ± 0.089 % dose/g, the Blood % dose/g (Group A (complex alone), 2 min) is reported as 0.383 ± 0.287 % dose/g and the Brain % dose/g (Group A (complex alone), 2 min) is reported as 0.082 ± 0.010 % dose/g. The Heart % dose/g (Group A (complex alone), 2 min) was 0.904 ± 0.062 % dose/g, the Kidney % dose/g (Group A (complex alone), 2 min) was 6.518 ± 0.821 % dose/g and the Liver % dose/g (Group A (complex alone), 2 min) was 7.259 ± 0.005 % dose/g. The Lung % dose/g (Group A (complex alone), 2 min) was 0.565 ± 0.074 % dose/g, the Muscle % dose/g (Group A (complex alone), 2 min) was 0.110 ± 0.004 % dose/g and the Spleen % dose/g (Group A (complex alone), 2 min) was 1.833 ± 0.249 % dose/g. For the same molecule, the “Submaxillary glands % dose/g” value (Group A (complex alone), 2 min) was 1.791 ± 0.249 % dose/g, the “Adrenal glands % dose/g” value (Group A (complex alone), 5 min) was 3.710 ± 0.682 % dose/g and the Blood % dose/g (Group A (complex alone), 5 min) was 0.349 ± 0.033 % dose/g. The Brain % dose/g (Group A (complex alone), 5 min) was 0.079 ± 0.002 % dose/g, the Heart % dose/g (Group A (complex alone), 5 min) was 0.881 ± 0.071 % dose/g and the Kidney % dose/g (Group A (complex alone), 5 min) was 6.193 ± 0.421 % dose/g. For the same molecule, the Liver % dose/g (Group A (complex alone), 5 min) was 5.798 ± 0.549 % dose/g, the Lung % dose/g (Group A (complex alone), 5 min) was 0.425 ± 0.094 % dose/g and the Muscle % dose/g (Group A (complex alone), 5 min) was 0.105 ± 0.010 % dose/g. For the same molecule, the Spleen % dose/g (Group A (complex alone), 5 min) was 1.927 ± 0.155 % dose/g, the “Submaxillary glands % dose/g” value (Group A (complex alone), 5 min) was 1.721 ± 0.460 % dose/g and the “Adrenal glands % dose/g” value [1] was 5.353 ± 0.339 % dose/g. The Blood % dose/g [1] was 0.212 ± 0.012 % dose/g, the Brain % dose/g [1] was 0.076 ± 0.003 % dose/g and the Heart % dose/g [1] was 0.894 ± 0.016 % dose/g. For the same molecule, the Kidney % dose/g [1] was 6.295 ± 0.329 % dose/g, the Liver % dose/g [1] was 4.539 ± 0.286 % dose/g and the Lung % dose/g [1] was 0.399 ± 0.011 % dose/g. For the same molecule, the Muscle % dose/g [1] was 0.096 ± 0.009 % dose/g, the Spleen % dose/g [1] was 2.139 ± 0.200 % dose/g and the “Submaxillary glands % dose/g” value [1] was 1.876 ± 0.030 % dose/g. For the same molecule, the “Adrenal glands % dose/g” value [2] was 5.153 ± 0.039 % dose/g, the Blood % dose/g [2] was 0.095 ± 0.024 % dose/g and the Brain % dose/g [2] was 0.070 ± 0.005 % dose/g. For the same molecule, the Heart % dose/g [2] was 0.951 ± 0.103 % dose/g, the Kidney % dose/g [2] was 10.11 ± 1.762 % dose/g and the Liver % dose/g [2] was 3.069 ± 0.672 % dose/g. The Lung % dose/g [2] was 0.351 ± 0.085 % dose/g, the Muscle % dose/g [2] was 0.098 ± 0.021 % dose/g and the Spleen % dose/g [2] was 1.965 ± 0.158 % dose/g. The “Submaxillary glands % dose/g” value [2] was 2.065 ± 0.069 % dose/g, the “Adrenal glands % dose/g” value [3] was 4.800 ± 1.737 % dose/g and the Blood % dose/g [3] was 0.069 ± 0.008 % dose/g. For the same molecule, the Brain % dose/g [3] was 0.064 ± 0.003 % dose/g, the Heart % dose/g [3] was 0.931 ± 0.025 % dose/g and the Kidney % dose/g [3] was 6.227 ± 1.020 % dose/g. The Liver % dose/g [3] was 2.809 ± 0.739 % dose/g, the Lung % dose/g [3] was 0.224 ± 0.070 % dose/g and the Muscle % dose/g [3] was 0.108 ± 0.015 % dose/g. The Spleen % dose/g [3] was 1.873 ± 0.667 % dose/g, the “Submaxillary glands % dose/g” value [3] was 1.491 ± 1.149 % dose/g and the “Adrenal glands % dose/g” value [4] was 4.220 ± 0.182 % dose/g. The Blood % dose/g [4] was 0.068 ± 0.001 % dose/g, the Brain % dose/g [4] was 0.051 ± 0.001 % dose/g and the Heart % dose/g [4] was 0.806 ± 0.080 % dose/g. The Kidney % dose/g [4] was 5.538 ± 0.607 % dose/g, the Liver % dose/g [4] was 1.463 ± 0.186 % dose/g and the Lung % dose/g [4] was 0.151 ± 0.001 % dose/g. The Muscle % dose/g [4] was 0.397 ± 0.033 % dose/g, the Spleen % dose/g [4] was 1.453 ± 0.085 % dose/g and the “Submaxillary glands % dose/g” value [4] was 1.351 ± 0.037 % dose/g. The “Adrenal glands % dose/g” value [5] was 5.013 ± 1.061 % dose/g, the Blood % dose/g [5] was 0.058 ± 0.008 % dose/g and the Brain % dose/g [5] was 0.034 ± 0.004 % dose/g. It also gave a Heart % dose/g [5] of 0.884 ± 0.075 % dose/g, a Kidney % dose/g [5] of 7.182 ± 0.349 % dose/g and a Liver % dose/g [5] of 1.375 ± 0.054 % dose/g. For the same molecule, the Lung % dose/g [5] was 0.194 ± 0.002 % dose/g, the Muscle % dose/g [5] was 0.090 ± 0.009 % dose/g and the Spleen % dose/g [5] was 1.461 ± 0.132 % dose/g. The “Submaxillary glands % dose/g” value [5] was 1.976 ± 0.293 % dose/g and the “Adrenal glands % dose/g” value (Group B (with 1.0 mg/kg unlabeled desipramine), 2 min) was 4.314 ± 0.718 % dose/g.
